In patent publication US11708348B2, “Protease inhibitors for treatment of coronavirus infections” (The Scripps Research Institute, priority 2021, dated 2023):
Where two headings read alike, the source gives them in different places.

Tested on: SARS-CoV-2 strain USA-WA1/2020
Experiment: microbe, parasite or virus in culture
Assay type: cell-based
Settings: Severe acute respiratory syndrome coronavirus 2, HeLa-ACE2, 24 h, HeLa-ACE2 cells, SARS-CoV-2 infection, 24 h, read-out: EC50, uM (Hela)

O=C(N[C@@H](CC1CC1)C(=O)N[C@@H](C[C@@H]1CCNC1=O)C(=O)COC(F)(F)F)c1cc2cc(F)ccc2[nH]1 [Compound 161, N-((S)-3-cyclopropyl-1-oxo-1-(((S)-3-oxo-1-((S)-2-oxopyrrolidin-3-yl)-4-(trifluoromethoxy)butan-2-yl)amino)propan-2-yl)-5-fluoro-1H-indole-2-carboxamide]
EC50 (class symbols): < 0.05 µM

COc1cccc2[nH]c(C(=O)N[C@@H](CC(C)C)C(=O)N[C@@H](C[C@@H]3CCNC3=O)C(=O)COCC(F)(F)F)cc12 [Compound 162, 4-methoxy-N-((S)-4-methyl-1-oxo-1-(((S)-3-oxo-1-((S)-2-oxopyrrolidin-3-yl)-4-(2,2,2-trifluoroethoxy)butan-2-yl)amino)pentan-2-yl)-1H-indole-2-carboxamide]
EC50 (cells given as a bound): > 1 µM

CC(C)C[C@H](NC(=O)C(=O)NC1CCCCC1)C(=O)N[C@@H](C[C@@H]1CCNC1=O)C(=O)COC(F)(F)F [Compound 163, N1-cyclohexyl-N2-((S)-4-methyl-1-oxo-1-(((S)-3-oxo-1-((S)-2-oxopyrrolidin-3-yl)-4-(trifluoromethoxy)butan-2-yl)amino)pentan-2-yl)oxalamide]
EC50 (class symbols): < 0.05 µM

COc1cccc(OC)c1NC(=O)C(=O)N[C@@H](CC(C)C)C(=O)N[C@@H](C[C@@H]1CCNC1=O)C(=O)COC(F)(F)F [Compound 164, N1-(2,6-dimethoxyphenyl)-N2-((S)-4-methyl-1-oxo-1-(((S)-3-oxo-1-((S)-2-oxopyrrolidin-3-yl)-4-(trifluoromethoxy)butan-2-yl)amino)pentan-2-yl)oxalamide]
EC50 (class symbols): < 0.05 µM

COc1cccc(C)c1NC(=O)C(=O)N[C@@H](CC(C)C)C(=O)N[C@@H](C[C@@H]1CCNC1=O)C(=O)COC(F)(F)F [Compound 165, N1-(2-methoxy-6-methylphenyl)-N2-((S)-4-methyl-1-oxo-1-(((S)-3-oxo-1-((S)-2-oxopyrrolidin-3-yl)-4-(trifluoromethoxy)butan-2-yl)amino)pentan-2-yl)oxalamide]
EC50 (class symbols): < 0.05 µM

COc1cccc(F)c1NC(=O)C(=O)N[C@@H](CC(C)C)C(=O)N[C@@H](C[C@@H]1CCNC1=O)C(=O)COC(F)(F)F [Compound 166, N1-(2-fluoro-6-methoxyphenyl)-N2-((S)-4-methyl-1-oxo-1-(((S)-3-oxo-1-((S)-2-oxopyrrolidin-3-yl)-4-(trifluoromethoxy)butan-2-yl)amino)pentan-2-yl)oxalamide]
EC50 (class symbols): < 0.05 µM

CCc1cccc(CC)c1NC(=O)C(=O)N[C@@H](CC(C)C)C(=O)N[C@@H](C[C@@H]1CCNC1=O)C(=O)COC(F)(F)F [Compound 167, N1-(2,6-diethylphenyl)-N2-((S)-4-methyl-1-oxo-1-(((S)-3-oxo-1-((S)-2-oxopyrrolidin-3-yl)-4-(trifluoromethoxy)butan-2-yl)amino)pentan-2-yl)oxalamide]
EC50 (class symbols): < 0.05 µM

CC(C)C[C@H](NC(=O)c1ccc2c(c1)OCO2)C(=O)N[C@@H](C[C@@H]1CCNC1=O)C(=O)COC(F)(F)F [Compound 168, N-((S)-4-methyl-1-oxo-1-(((S)-3-oxo-1-((S)-2-oxopyrrolidin-3-yl)-4-(trifluoromethoxy)butan-2-yl)amino)pentan-2-yl)benzo[d][l,3]dioxole-5-carboxamide]
EC50 (class symbols): 0.05 to 0.2 µM

CC(C)C[C@H](NC(=O)C(=O)NC1CCCCC1(F)F)C(=O)N[C@@H](C[C@@H]1CCNC1=O)C(=O)COC(F)(F)F (stereo partly drawn) [Compound 169, N1-(2,2-difluorocyclohexyl)-N2-((S)-4-methyl-1-oxo-1-(((S)-3-oxo-1-((S)-2-oxopyrrolidin-3-yl)-4-(trifluoromethoxy)butan-2-yl)amino)pentan-2-yl)oxalamide]
EC50 (class symbols): < 0.05 µM

CC(C)C[C@H](NC(=O)C(=O)Nc1c(OC(C)C)cccc1OC(C)C)C(=O)N[C@@H](C[C@@H]1CCNC1=O)C(=O)COC(F)(F)F [Compound 170, Nl-(2,6-diisopropoxyphenyl)-N2-((S)-4-methyl-1-oxo-1-(((S)-3-oxo-1-((S)-2-oxopyrrolidin-3-yl)-4-(trifluoromethoxy)butan-2-yl)amino)pentan-2-yl)oxalamide]
EC50 (class symbols): < 0.05 µM

CC(C)C[C@H](NC(=O)c1cc(-c2ccccc2F)on1)C(=O)N[C@@H](C[C@@H]1CCNC1=O)C(=O)COC(F)(F)F [Compound 171, 5-(2-fluorophenyl)-N-((S)-4-methyl-1-oxo-1-(((S)-3-oxo-1-((S)-2-oxopyrrolidin-3-yl)-4-(trifluoromethoxy)butan-2-yl)amino)pentan-2-yl)isoxazole-3-carboxamide]
EC50 (class symbols): < 0.05 µM

CC(C)(C)C[C@H](NC(=O)C(=O)NC(C)(C)C)C(=O)N[C@@H](C[C@@H]1CCNC1=O)C(=O)COC(F)(F)F [Compound 172, N1-(tert-butyl)-N2-((S)-4,4-dimethyl-1-oxo-1-(((S)-3-oxo-1-((S)-2-oxopyrrolidin-3-yl)-4-(trifluoromethoxy)butan-2-yl)amino)pentan-2-yl)oxalamide]
EC50 (class symbols): < 0.05 µM

CC(C)(C)C[C@H](NC(=O)C(=O)Nc1ccccc1C(C)(C)C)C(=O)N[C@@H](C[C@@H]1CCNC1=O)C(=O)COC(F)(F)F [Compound 173, N1-(2-(tert-butyl)phenyl)-N2-((S)-4,4-dimethyl-1-oxo-1-(((S)-3-oxo-1-((S)-2-oxopyrrolidin-3-yl)-4-(trifluoromethoxy)butan-2-yl)amino)pentan-2-yl)oxalamide]
EC50 (class symbols): < 0.05 µM

CC(C)C[C@H](NC(=O)C(=O)NC1CC1)C(=O)N[C@@H](C[C@@H]1CCNC1=O)C(=O)COC(F)(F)F [Compound 174, N1-cycl opropyl-N2-((S)-4-methyl-1-oxo-1-(((S)-3-oxo-1-((S)-2-oxopyrrolidin-3-yl)-4-(trifluoromethoxy)butan-2-yl)amino)pentan-2-yl)oxalamide]
EC50 (class symbols): < 0.05 µM

CC(C)C[C@H](NC(=O)C(=O)Nc1ccccc1F)C(=O)N[C@@H](C[C@@H]1CCNC1=O)C(=O)COC(C(F)F)C(F)F [Compound 175, N1-(2-fluorophenyl)-N2-((S)-4-methyl-1-oxo-1-(((S)-3-oxo-1-((S)-2-oxopyrrolidin-3-yl)-4-((1,1,3,3-tetrafluoropropan-2-yl)oxy)butan-2-yl)amino)pentan-2-yl)oxalamide]
EC50 (cells given as a bound): > 1 µM

O=C(NC1CC(F)(F)C1)C(=O)N[C@@H](CC1CC1)C(=O)N[C@@H](C[C@@H]1CCNC1=O)C(=O)COC(F)(F)F [Compound 176, N1-((S)-3-cyclopropyl-1-oxo-1-(((S)-3-oxo-1-((S)-2-oxopyrrolidin-3-yl)-4-(trifluoromethoxy)butan-2-yl)amino)propan-2-yl)-N2-(3,3-difluorocyclobutyl)-oxalamide]
EC50 (class symbols): < 0.05 µM

COCc1ccccc1NC(=O)C(=O)N[C@@H](CC(C)C)C(=O)N[C@@H](C[C@@H]1CCNC1=O)C(=O)COC(F)(F)F [Compound 177, N1-(2-(methoxymethyl)phenyl)-N2-((S)-4-methyl-1-oxo-1-(((S)-3-oxo-1-((S)-2-oxopyrrolidin-3-yl)-4-(trifluoromethoxy)butan-2-yl)amino)pentan-2-yl)oxalamide]
EC50 (class symbols): < 0.05 µM

COc1cccc2[nH]c(C(=O)N[C@@H](CC(C)C)C(=O)N[C@@H](C[C@@H]3CCNC3=O)C(=O)COC(C(F)F)C(F)F)cc12 [Compound 178, 4-methoxy-N-((S)-4-methyl-1-oxo-1-(((S)-3-oxo-1-((S)-2-oxopyrrolidin-3-yl)-4-((1,1,3,3-tetrafluoropropan-2-yl)oxy)butan-2-yl)amino)pentan-2-yl)-1H-indole-2-carboxamide]
EC50 (cells given as a bound): > 1 µM

CC(C)(C)C[C@H](NC(=O)C(=O)NC1CC(F)(F)C1)C(=O)N[C@@H](C[C@@H]1CCNC1=O)C(=O)COC(F)(F)F [Compound 179, Nl-(3,3-difluorocyclobutyl)-N2-((S)-4,4-dimethyl-1-oxo-1-(((S)-3-oxo-1-((S)-2-oxopyrrolidin-3-yl)-4-(trifluoromethoxy)butan-2-yl)amino)pentan-2-yl)oxalamide]
EC50 (class symbols): < 0.05 µM

CC(C)C[C@H](NC(=O)C(=O)NC(C)(C)C)C(=O)N[C@@H](C[C@@H]1CCNC1=O)C(=O)COC(F)(F)F [Compound 180, N1-(tert-butyl)-N2-((S)-4-methyl-1-oxo-1-(((S)-3-oxo-1-((S)-2-oxopyrrolidin-3-yl)-4-(trifluoromethoxy)butan-2-yl)amino)pentan-2-yl)oxalamide]
EC50 (class symbols): < 0.05 µM

CC(C)(C)NC(=O)C(=O)NC(CC1CCOCC1)C(=O)N[C@@H](C[C@@H]1CCNC1=O)C(=O)COC(F)(F)F (stereo partly drawn) [Compound 181, N1-(tert-butyl)-N2-(l-oxo-1-(((S)-3-oxo-l-((S)-2-oxopyrrolidin-3-yl)-4-(trifluoromethoxy)butan-2-yl)amino)-3-(tetrahydro-2H-pyran-4-yl)propan-2-yl)oxalamide]
EC50 (class symbols): 0.2 to 0.5 µM

O=C(NC1CC(F)(F)C1)C(=O)N[C@@H](Cc1ccccc1)C(=O)N[C@@H](C[C@@H]1CCNC1=O)C(=O)COC(F)(F)F [Compound 182, N1-(3,3-difluorocyclobutyl)-N2-((S)-1-oxo-1-(((S)-3-oxo-1-((S)-2-oxopyrrolidin-3-yl)-4-(trifluoromethoxy)butan-2-yl)amino)-3-phenylpropan-2-yl)oxalamide]
EC50 (class symbols): < 0.05 µM

O=C(NC(CC1CCOCC1)C(=O)N[C@@H](C[C@@H]1CCNC1=O)C(=O)COC(F)(F)F)c1cc(-c2ccccc2F)on1 (stereo partly drawn) [Compound 183, 5-(2-fluorophenyl)-N-(1-oxo-1-(((S)-3-oxo-1-((S)-2-oxopyrrolidin-3-yl)-4-(trifluoromethoxy)butan-2-yl)amino)-3-(tetrahydro-2H-pyran-4-yl)propan-2-yl)isoxazole-3-carboxamide]
EC50 (class symbols): < 0.05 µM

O=C(N[C@@H](CC1CC1)C(=O)N[C@@H](C[C@@H]1CCNC1=O)C(=O)COC(F)(F)F)c1nnc(-c2ccc(F)cc2)o1 [Compound 184, N-((S)-3-cyclopropyl-1-oxo-1-(((S)-3-oxo-1-((S)-2-oxopyrrolidin-3-yl)-4-(trifluoromethoxy)butan-2-yl)amino)propan-2-yl)-5-(4-fluorophenyl)-1,3,4-oxadiazole-2-carboxamide]
EC50 (class symbols): 0.05 to 0.2 µM
